Results reported in PubChem BioAssay (NCI).
Where “and” joins values, the source holds several entries; their conditions need not be identical. Identical values can stand only once.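 Values below derive from 48-hour exposures of cells grown in 96-well plates, with endpoints linearly interpolated between the two concentrations bracketing the appropriate inhibition level. The concentration for 50% growth inhibition is given as GI50. TGI is the concentration that stops growth completely.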

Experiments:
Assay in all cases: growth of human tumour cells (NCI), 48 h
786-0 renal = tested on: 786-0 renal
NCI-H460 lung = tested on: NCI-H460 lung
HL-60(TB) leukemia = tested on: HL-60(TB) leukemia
SK-MEL-2 melanoma = tested on: SK-MEL-2 melanoma
NCI-H522 lung = tested on: NCI-H522 lung
UACC-257 melanoma = tested on: UACC-257 melanoma
HOP-92 NSCLC = tested on: HOP-92 NSCLC
OVCAR-4 ovarian = tested on: OVCAR-4 ovarian
HCT-116 colon = tested on: HCT-116 colon
CAKI-1 renal = tested on: CAKI-1 renal
SR leukemia = tested on: SR leukemia
CCRF-CEM leukemia = tested on: CCRF-CEM leukemia
SNB-75 CNS = tested on: SNB-75 CNS
ACHN renal = tested on: ACHN renal
MDA-MB-435 = tested on: MDA-MB-435

Row | Structure (SMILES) | TGI (786-0 renal) | TGI (NCI-H460 lung) | TGI (HL-60(TB) leukemia) | TGI (SK-MEL-2 melanoma) | TGI (NCI-H522 lung) | TGI (UACC-257 melanoma) | TGI (HOP-92 NSCLC) | TGI (OVCAR-4 ovarian) | TGI (HCT-116 colon) | TGI (CAKI-1 renal) | TGI (SR leukemia) | TGI (CCRF-CEM leukemia) | TGI (SNB-75 CNS) | TGI (ACHN renal) | TGI (MDA-MB-435) | GI50 (HCT-116 colon) | GI50 (CAKI-1 renal) | GI50 (ACHN renal)
1 | c1ccc(CSCCC(SCc2ccccc2)SCc2ccccc2)cc1 | > 10 µM | > 10 µM | > 10 µM | > 10 µM | > 10 µM | > 10 µM | > 10 µM | > 10 µM | > 10 µM | > 10 µM | > 10 µM | > 10 µM | > 10 µM | > 10 µM |  |  |  | 
2 | COc1cc2c(c(OC)c1OC)[C@@H]1CCCCC[C@@H]1CCC2=O | > 100 µM | > 100 µM | > 63.4 µM | > 100 µM | > 100 µM | > 100 µM | > 100 µM | > 100 µM | > 100 µM | > 100 µM | > 59.2 µM | > 77.8 µM | > 100 µM | > 100 µM |  |  |  | 
3 | COc1ccc(/C=C2\CC3C4CC=C5C[C@@H](N6CCCC6)CC[C@]5(C)C4CC[C@]3(C)[C@H]2O)cc1OC (stereo partly specified) | 11.1 µM | 17.4 µM | 42.4 µM | 14.3 µM | 16 µM | 15.4 µM | 23.4 µM | 17.1 µM | 15.8 µM | 16.7 µM |  | 50 µM | 22.9 µM | 16 µM | 14.3 µM |  |  | 
4 | O=C1C[C@@H]2[C@@H](C=CC23CCCC3)N1O | > 100 µM | > 100 µM | > 100 µM | > 100 µM | > 100 µM | > 100 µM |  | > 100 µM | > 100 µM | > 100 µM |  | > 100 µM | > 100 µM | > 100 µM |  |  |  | 
5 | O=C(O)C(Cc1ccc(O)cc1)N=Cc1nc(-c2ccccc2)oc1O (stereo unspecified) | > 100 µM | > 100 µM | > 100 µM | > 100 µM | > 100 µM | > 100 µM | > 100 µM | > 100 µM | > 100 µM | > 100 µM |  | > 100 µM | > 100 µM | > 100 µM |  |  |  | 
6 | CC(=O)/C=C1/C(=O)C(CC(C)C)=C1CC(C)C | > 100 µM |  | > 100 µM | > 100 µM | > 100 µM | > 100 µM | > 100 µM | > 100 µM | > 100 µM | > 100 µM |  | > 100 µM | > 100 µM | > 100 µM | > 100 µM |  |  | 
7 | C=Cc1c(-c2ccccc2)cnc2[nH]c3ccccc3c12 | > 50 µM | > 50 µM | > 50 µM | > 50 µM | > 50 µM | > 50 µM |  | > 50 µM | > 50 µM | > 50 µM | > 50 µM | > 50 µM | 46 µM | > 50 µM |  |  |  | 
8 | COc1ccc2c(c1)C1Oc3ccccc3CC1CO2 (stereo unspecified) | > 100 µM | > 100 µM | 50 µM | > 100 µM | > 100 µM | > 100 µM | 87 µM | > 100 µM | > 100 µM | > 100 µM |  | > 100 µM | 98.7 µM | > 100 µM | > 100 µM |  |  | 
9 | CC1=CC(=O)c2ccc3c4ccccc4n(C)c3c2C1=O | > 100 µM | > 100 µM | > 72.3 µM | 53.1 µM | 78.9 µM | > 100 µM | > 100 µM | > 100 µM | > 100 µM | > 67.5 µM |  | > 81.5 µM | > 100 µM | > 100 µM | 33.4 µM |  |  | 
10 | COc1cc(CNc2ccc(C)cc2)cc(OC)c1OC | > 44.9 µM | > 23.8 µM and 3.92 µM |  | > 100 µM | 0.435 µM and 0.83 µM | > 100 µM | > 100 µM | > 100 µM |  | > 100 µM | > 100 µM | > 83.6 µM | > 100 µM | > 100 µM |  | 0.333 µM and 0.816 µM | 0.235 µM and 0.0641 µM | 0.674 µM and 0.216 µM
11 | COc1cc(C(C)c2cc3c(cc2OCCCCCOc2cc4c(cc2C(C)c2cc(OC)c(OC)c(OC)c2)OCO4)OCO3)cc(OC)c1OC (stereo unspecified) | > 100 µM | > 100 µM | > 100 µM | > 100 µM | > 100 µM | > 100 µM |  | > 100 µM | > 100 µM | > 100 µM | > 100 µM | > 100 µM | > 100 µM | > 100 µM |  |  |  | 
12 | COc1c(O)ccc(/C=N/NC(=S)NCOCCOC(C)=O)c1OC | > 100 µM | > 100 µM | > 100 µM | > 100 µM | > 100 µM | > 100 µM | > 100 µM | > 100 µM | > 100 µM |  |  | > 100 µM | > 100 µM | > 100 µM |  |  |  | 
13 | Cc1nsc2cc(Cl)n(C)c(=O)c12 | > 100 µM | > 100 µM | > 100 µM | > 100 µM | 69.3 µM | > 100 µM | > 100 µM | > 100 µM | > 100 µM | > 100 µM | > 100 µM | > 100 µM | > 100 µM | > 100 µM |  |  |  | 
14 | c1ccc(Nc2nnc(-c3ccccc3Nc3ccccc3-c3nnc(Nc4ccccc4)s3)s2)cc1 | > 100 µM | > 100 µM | > 100 µM | > 100 µM | > 100 µM | > 100 µM | > 100 µM | > 100 µM | > 100 µM |  |  | > 100 µM | > 100 µM | > 100 µM | > 100 µM |  |  | 
15 | C[C@]12CC/C(=N\OCCN3CCCC3)C=C1CCC1C2CC[C@@]2(C)C1CC[C@]2(C)O (stereo partly specified) | 14.8 µM | 16.3 µM |  | 44.2 µM | 8.57 µM | 17.8 µM | 32.3 µM | 82.4 µM | 18 µM | 24.1 µM |  | 9.6 µM | 11.9 µM | 50.3 µM | 6.67 µM |  |  | 
16 | COc1cc(Br)c(/C=N/N=C(\N)NO)cc1OC | 92.8 µM | 27.2 µM | 52.6 µM | > 100 µM | 37.5 µM | 51 µM | 90.5 µM | > 100 µM | 43.8 µM | 79 µM | > 100 µM | > 100 µM | 65.9 µM | 50.6 µM |  |  |  | 
17 | COc1cc(Br)c(C=Nc2cccc3ccc(OS(=O)(=O)c4ccc([N+](=O)[O-])cc4)cc23)cc1OC | > 100 µM | > 100 µM |  | > 100 µM | > 100 µM | > 100 µM | > 100 µM | > 100 µM | > 100 µM | > 100 µM | > 100 µM | > 100 µM |  | > 100 µM |  |  |  | 
18 | CC1(C)COC(c2cccc(C(=O)c3ccccc3)c2)=N1 | > 100 µM | > 100 µM | 58 µM | > 100 µM | 88.1 µM | > 100 µM | > 100 µM | > 100 µM | > 100 µM | > 100 µM | > 100 µM | > 100 µM |  | > 100 µM |  |  |  | 
19 | COC(=O)C(C(=O)C(=O)Nc1nc2ccc(OC)cc2s1)c1cnc2ccccc2n1 (stereo unspecified) | > 100 µM | > 100 µM |  |  | > 100 µM | > 100 µM | > 100 µM | > 100 µM | > 100 µM | > 100 µM |  |  | > 100 µM | > 100 µM |  |  |  | 
20 | CC[n+]1c(/C=C/c2cc(C(=O)OC)n3c2sc2ccccc23)sc2ccccc21 | 38.6 µM | 34.3 µM | 98.4 µM | 39 µM | 30.7 µM | 33.1 µM | 31.6 µM | 34.2 µM | 37.1 µM |  |  | 32.6 µM | 32.5 µM | 36.2 µM |  |  |  | 
21 | CCOC(=O)c1sc2c(c1OC(=O)c1ccco1)c(=O)n(-c1ccccc1)c(=S)n2-c1ccccc1 | > 100 µM | 45.5 µM | 52.2 µM |  | > 100 µM | > 100 µM | 71.3 µM | > 100 µM | > 100 µM | 82.8 µM |  | > 100 µM | > 100 µM | 83.8 µM | 93 µM |  |  | 
22 | Nc1ccc(C(=O)NN2C(=O)C(Cl)C2c2ccc(O)cc2)cc1 (stereo unspecified) | 31.3 µM | 54.8 µM | 33.7 µM | 31.4 µM | 24.4 µM | > 100 µM | 41.8 µM | 41.4 µM | 44 µM | 51.3 µM |  | 33.8 µM | 70.4 µM | > 100 µM |  |  |  | 
23 | O=[N+]([O-])/C(C(Cl)=C(Cl)Cl)=C(\NCc1ccccc1)Sc1ccccc1 | > 100 µM | > 100 µM |  | 84.7 µM |  | > 100 µM |  | 75.4 µM | > 100 µM | > 100 µM |  | > 100 µM | 63.3 µM | > 100 µM | 41.3 µM |  |  | 
24 | O=C(CC(=O)n1nc(-c2ccccc2)c(N=Nc2ccc([N+](=O)[O-])cc2)c1-c1ccccc1)Nc1ccc(Cl)cc1 | > 100 µM | > 100 µM | 70.4 µM | > 100 µM | > 100 µM | > 100 µM | 52.3 µM | > 100 µM | > 100 µM | 99.3 µM | > 100 µM | 97 µM | > 100 µM | 19.2 µM |  |  |  | 
25 | CCN1C(c2ccccc2)=CC(c2ccccc2)(C(Cl)(Cl)Cl)C=C1c1ccccc1 | > 100 µM | 23.3 µM | 2.73 µM |  | > 100 µM | > 100 µM | 25.8 µM | > 100 µM | 29.3 µM | > 100 µM |  | > 100 µM | > 100 µM | > 100 µM | 9.51 µM |  |  | 
